Structures can show the parent of a compound that is named as a salt.
Tests used:
[1] = tested on: gravid White New Zealand female rabbits; test: Teratogenicity in gravid White New Zealand rabbits; assay type: in vivo, rabbit; conditions: day 5 to day 18 of gestation; for Affected foetuses, %: normal limit 1.5%
Procedure: The protocol used comprised administering to gravid White New Zealand female rabbits (weighing each about 2900-3000 grams before gestation) a daily dose of 0 (batch of control animals), 5,10 or 50 mg/kg of each product to be tested by gastrogavage from day 5 to day 18 of gestation, then carrying out a cesarean operation on day 29 of gestation in order to enumerate:
(i) the total number of foestuses, and
(ii) the total number of foestuses presenting at least one malformation.
To appreciate the results of such a protocol it must be noted that natural malformations may occur. Statistically, the percentage of foetuses presenting at least one malformation in any control batch of gravid White New Zealand female rabbits is lower than or equal to 1.5% with respect to the total number of foetuses.
To be precise in this protocol a malformation comprises at least one of the following cases: articular limb blocade, anorous foetus, deviated tail, shorter tail, skull deformation, exemcephalia.

[2] = pH of solutions in distilled water; assay type: physicochemical
Procedure: The neuropsychopharmacological study was undertaken according to the procedures described above for CRL 41 153, CRL 41 213 being adminstered intraperitoneally, in solution in distilled water, in a volume of 20 ml/kg to male mice and a volume of 5 ml/kg to male rats, and the pH of the injected solution varying with the concentration of CRL 41 213 according to the data given in Table II below.

mice = test: Interaction with barbital; assay type: in vivo, mouse; conditions: i.p., barbital 220 mg/kg
Procedure: Half an hour after the administration of CRL 41 153, groups of 10 mice receive an intraperitoneal injection of barbital (220 mg/kg).

CNS = test: Neuropsychopharmacological profile as a whole; assay type: in vivo, mice and rats; conditions: conclusion of the tests
Procedure: In the neuropsychopharmacological study which follows, a solution of CRL 41 153 in distilled water (pH 1.5) was administered intraperitoneally in a volume of 20 ml/kg to male mice and 5 ml/kg to male rats.

| Structure (SMILES) | Affected foetuses, number ([1]; 10 mg/kg daily) | Total foetuses (live) ([1]; 10 mg/kg daily) | Affected foetuses, % ([1]; 10 mg/kg daily) [%] | further results |
| --- | --- | --- | --- | --- |
| CC(C)NCCCC(=O)c1ccc(N)cc1 [A 1, reference compound] | 4 | 87 | 4.59 | – |
| CC(C)(C)NCCCC(=O)c1ccc(N)cc1 [A 2, reference compound] | 4 | 85 | 4.70 | – |
| CC(C)NCCCC(=O)c1cc(Cl)c(N)c(Cl)c1 [A 3, reference compound] | 5 | 82 | 6.09 | – |
| Nc1ccc(C(=O)CCCN2CCCCC2)cc1 [A 5, reference compound] | 4 | 87 | 4.59 | Affected foetuses, number ([1]; 5 mg/kg daily): 3; Total foetuses (live) ([1]; 5 mg/kg daily): 81; Affected foetuses, % ([1]; 5 mg/kg daily): 3.70% |
| Nc1ccc(C(=O)CCCN2CCCC2)cc1 [A 6, reference compound] | 5 | 86 | 5.81 | Affected foetuses, number ([1]; 5 mg/kg daily): 0; Total foetuses (live) ([1]; 5 mg/kg daily): 89; Affected foetuses, % ([1]; 5 mg/kg daily): 0% |
| CCNCCC(=O)c1ccc(N)cc1 [A 7, reference compound] | 4 | 79 | 5.06 | Affected foetuses, number ([1]; 5 mg/kg daily): 1; Total foetuses (live) ([1]; 5 mg/kg daily): 80; Affected foetuses, % ([1]; 5 mg/kg daily): 1.25% |
| CN(C)CCC(=O)c1ccc(N)cc1 [A 8, reference compound] | 5 | 81 | 6.17 | – |
| Nc1ccc(C(=O)CCN2CCOCC2)cc1 [A 9, reference compound] | 0 | 94 | 0 | Affected foetuses, number ([1]; 5 mg/kg daily): 1; Total foetuses (live) ([1]; 5 mg/kg daily): 86; Affected foetuses, % ([1]; 5 mg/kg daily): 1.16%; Affected foetuses, number ([1]; 50 mg/kg daily): 6; Total foetuses (live) ([1]; 50 mg/kg daily): 82; Affected foetuses, % ([1]; 50 mg/kg daily): 7.31% |
| Nc1ccc(C(=O)CCN2CCCCC2)cc1 [A 10, reference compound] | 4 | 78 | 5.12 | – |
| CN1CCN(CCC(=O)c2ccc(N)cc2)CC1 [A 11, reference compound] | 6 | 80 | 7.50 | – |
| Nc1ccc(C(=O)CCNC2CC2)cc1 [A 12, reference compound] | – | – | – | Affected foetuses, number ([1]; 5 mg/kg daily): 2; Total foetuses (live) ([1]; 5 mg/kg daily): 75; Affected foetuses, % ([1]; 5 mg/kg daily): 2.66% |
| Nc1ccc(C(=O)CCN2CCSCC2)cc1 [A 13, reference compound] | 12 | 43 | 27.90 | – |
| CC(C)NCC(=O)c1ccc(N)cc1 [A 14, reference compound] | 3 | 76 | 3.94 | – |
| CC(C)NCC(=O)c1cccc(N)c1 [A 15, reference compound] | 14 | 52 | 26.92 | – |
| Nc1ccc(C(=O)CN2CCOCC2)cc1 [A 16, 1-(4-aminophenyl)-2-morpholinylethanone, reference compound] | 13 | 50 | 26.0 | Affected foetuses, number ([1]; 5 mg/kg daily): 3; Total foetuses (live) ([1]; 5 mg/kg daily): 81; Affected foetuses, % ([1]; 5 mg/kg daily): 3.70% |
| Nc1cccc(C(=O)CN2CCOCC2)c1 [A 17, reference compound] | 11 | 46 | 23.91 | Affected foetuses, number ([1]; 5 mg/kg daily): 2; Total foetuses (live) ([1]; 5 mg/kg daily): 77; Affected foetuses, % ([1]; 5 mg/kg daily): 2.59% |
| Nc1ccc(C(=O)CN2CCCCC2)cc1 [A 18, reference compound] | 10 | 51 | 19.60 | Affected foetuses, number ([1]; 5 mg/kg daily): 4; Total foetuses (live) ([1]; 5 mg/kg daily): 80; Affected foetuses, % ([1]; 5 mg/kg daily): 5.0% |
| Nc1cccc(C(=O)CN2CCCCC2)c1 [A 19, reference compound] | 3 | 62 | 4.83 | – |
| Nc1ccc(C(=O)CN2CCCC2)cc1 [A 20, reference compound] | 5 | 74 | 8.10 | – |
| Nc1cccc(C(=O)CN2CCCC2)c1 [A 21, reference compound] | 4 | 78 | 5.12 | – |
| CCC1CCCCN1C(C)C(=O)c1ccc(N)c(Br)c1 (stereo not drawn) [A 22, 1-(4-amino-3-bromophenyl)2-(2-ethylpiperidino)propanone, reference compound] | 13 | 46 | 28.26 | – |
| CC(C(=O)c1ccc(N)cc1)N1CCN(C)CC1 (stereo not drawn) [CRL 41 243] | – | – | – | Affected foetuses, number ([1]; 50 mg/kg daily): 0; Total foetuses (live) ([1]; 50 mg/kg daily): 87; Affected foetuses, % ([1]; 50 mg/kg daily): 0%; pH ([2]; 0.1 g/liter in distilled water): 5.0; pH ([2]; 0.2 g/liter in distilled water): 4.5; pH ([2]; 0.4 g/liter in distilled water): 4.0; pH ([2]; 0.8 g/liter in distilled water): 3.5; pH ([2]; 3.2 g/liter in distilled water): 2.5; pH ([2]; 6.4 g/liter in distilled water): 2.0; pH ([2]; 25 g/liter in distilled water): 1.5; pH ([2]; 50 g/liter in distilled water): 1.0; pH ([2]; ≤0.05 g/liter in distilled water): 5.5; Duration of the sleep induced by barbital (mice): at strong doses reduces the duration of the sleep induced by barbital; Antidepressant effects (overall) (CNS): modest antidepressant effects; Sedative effects (overall) (CNS): moderate sedative effects |
| CC(C)NC(C)C(=O)c1cccc(N)c1 (stereo not drawn) [CRL 41 255] | 1 | 89 | 1.12 | – |
| CC(C(=O)c1cccc(N)c1)N(C)C (stereo not drawn) [CRL 41 260] | 1 | 87 | 1.14 | – |
| CC(C(=O)c1cccc(N)c1)N1CCCCC1 (stereo not drawn) [CRL 41 263, 1-(3-aminophenyl)-2-piperidinopropanone dihydrochloride] | 0 | 92 | 0 | – |
| CC(C(=O)c1cccc(N)c1)N1CCOCC1 (stereo not drawn) [CRL 41 268] | 1 | 91 | 1.11 | – |
| CCCNC(C)C(=O)c1cccc(N)c1 (stereo not drawn) [CRL 41 278] | 1 | 92 | 1.08 | – |
